Each structure is given as a SMILES string. Several values for one entry are separate records, joined by “and”; a condition that tells them apart may be missing. Equal values may be shown once. Read-outs that look alike come from different tables or passages of the source. Where only a bound is given, the exact number is not on record here.

Series [1] relates to noncanonical NF-κB pathway. The experiment in a line: Noncanonical NF-κB pathway, anti-LTβR-stimulated Raw 264.7 cells (p100 to p52 processing). It counts as cell-based, mouse. Conditions: 100 μM, 30 min; anti-LTβR 8 h. How it is done: To determine whether the novel NBD mimetics target the NEMO-IKKβ interaction in vivo, co-immunoprecipitations were performed using extracts from Raw 264.7 macrophages (Fig 5A). […] No interaction between NEMO and TNF receptor-associated factor 2 (TRAF2) or IκBα was observed under these conditions. […] The levels of phosphorylated IKK complex, IκBα, and p65 in response to TNF-α and LPS were all reduced by SR12343 (Fig 5D & 5E). […] However, there were no changes in the levels of phospho-c-Jun N-terminal kinase (p-JNK), p-p38MAPK, total JNK, and p38MAPK by treatment with SR12343 (150 μM) in response to TNF-α or LPS stimulation (Fig 5G & 5H). […]
(A) Co-IP analysis detecting the IKKβ/NEMO interaction. […] NEMO-binding products were then analyzed for levels of IKKβ, IKKα, TRAF2, and IκBα (negative control), and levels of NEMO were used as a loading control (left panel). […] The levels of IKKβ-FLAG binding to GST-NEMO were determined by western blot analysis with GST-NEMO used as a loading control. […] Cell lysates were analyzed for activity of the IKK/NF-κB signaling pathway including activation of IKK complex, IκBα, and p65. […] Cell lysates were harvested and analyzed for activation of noncanonical NF-κB signaling, the processing of p100 to p52. […]

Series [2] can be described thus: Plasma and tissue concentrations 2 h after a single i.p. injection. It counts as in vivo, mouse. To be noted: for concentration at 2 h: male, C57BL/6J, mouse, ip, 10 mg/kg. As for the experimental part:
To determine the stability of the NBD mimetics in vivo, their levels were measured in the plasma of mice 2 h post i.p. injection with 10 mg/kg of each compound. The concentration of SR12460 was very high in plasma (>6.5 μg/mL; 20 μM), while levels in brain, muscle, spleen, and liver were lower. SR12343 and SR12454 had lower plasma concentrations, with SR12343 showing a higher level in liver and SR12454 showing higher concentrations in muscle and spleen. The level of SR11481 was undetectable in plasma and tissues (Fig 6A).
Fig 6 Newly identified NBD mimetics suppress LPS-induced acute inflammation in vivo. (A) The bioavailability property of SR12460, SR12343, SR12454, and SR11481. Concentrations of NBD mimetics were determined in plasma, brain, muscle, spleen, and liver 2 h post a single i.p. injection of 10 mg/kg of drugs; n = 3 per group. (B) Shown is the model to induce LPS-mediated acute inflammation and the treatment regimen with NBD mimetics. Mouse image via http://www.clker.com/clipart-mice-blank.html (copyright-free). (C) NBD mimetics suppressed LPS-induced acute inflammation in liver and lung by down-regulating NF-κB target gene expression. Vehicle, SR12343, SR12460, and 8K-NBD peptide were dosed at 10 mg/kg 30 min prior to the LPS treatment. Acute inflammation was induced by i.p. injection of 10 mg/kg LPS. Lung and liver were collected 2–4 h post injection, and mRNA was extracted for qRT-PCR analysis. (D, E) Western blot analysis was performed to probe for the expression of p-IκBα and COX-2 at protein level in liver and lung tissues. (F) Serum levels of IL-6 were determine by ELISA. n = 3–8 each group. *P < 0.05, **P < 0.01. Underlying data can be found in S1 Data. COX-2, cyclooxygenase 2; IL-6, interleukin 6; i.p., intraperitoneal; LPS, lipopolysaccharide; NBD, NEMO-binding domain; n.d., nondetectable; NEMO, NF-κB essential modulator; NF-κB, nuclear factor κB; qRT-PCR, quantitative real-time polymerase chain reaction. TEXT PRINTED IN THE PICTURE: (A) SR11481: Concentration (ng/ml): n.d. (plasma)
The pharmacokinetic profile of the NBD mimetics was determined in male C57BL/6J mice (n = 3). The drugs were formulated in 10:10:80 of DMSO:Tween 80:water and were dosed by i.p. injection at a final dose of 10 mg/kg. Blood, brain, muscle, spleen, and liver were collected 2 h post treatment and were analyzed by mass spectrometry by following a protocol previously described.

The mark [3] stands for this setting: 2 h post single i.p. 10 mg/kg, single mice.
Where [4] appears, read: plasma, 2 h post single i.p. 10 mg/kg, single mice, read-out: Concentration in plasma.
The mark [5] stands for this setting: spleen, 2 h post single i.p. 10 mg/kg, single mice, read-out: Concentration in spleen.

Regarding `O=C(CNc1ccc(Cl)cn1)NCCc1cccc(Br)c1` [SR12343], the “Activation of noncanonical NF-κB pathway (p100 to p52 processing)” value in series [1] is on record as “no effect”. Further, in series [2] (setting [3]), the Concentration in brain is 45.7 ng/mL and 29.2 ng/mL; the Concentration in plasma is 14.7 ng/mL and 8.4 ng/mL; the Concentration in spleen is 26.6 ng/mL and 25.1 ng/mL. Also, the concentration at 2 h in series [2] (brain, 2 h post single i.p. 10 mg/kg, single mice, read-out: Concentration in brain) was determined as 31.8 ng/mL. In series [2] (setting [4]), the concentration at 2 h amounted to 14.3 ng/mL. Further, the concentration at 2 h in series [2] (setting [5]) stood at 24.7 ng/mL.
Regarding `O=C(CNCCc1cc(F)cc(F)c1)Nc1ccc(Cl)cn1` [SR12460], the Concentration in liver in series [2] (setting [3]) is 265 ng/mL and 390 ng/mL. Besides, the Concentration in muscle in series [2] (setting [3]) is 602 ng/mL and 852 ng/mL. In series [2] (setting [3]), the Concentration in plasma was 5470 ng/mL and 7970 ng/mL. Further, the Concentration in spleen in series [2] (setting [3]) was 905 ng/mL and 1250 ng/mL. Further, the concentration at 2 h was 442 ng/mL in series [2] (liver, 2 h post single i.p. 10 mg/kg, single mice, read-out: Concentration in liver); 846 ng/mL in series [2] (muscle, 2 h post single i.p. 10 mg/kg, single mice, read-out: Concentration in muscle); > 6500 ng/mL and 20 µM in series [2] (plasma, 2 h post i.p. 10 mg/kg, read-out: Concentration in plasma); 6520 ng/mL in series [2] (setting [4]); 930 ng/mL in series [2] (setting [5]).

For the origin of these results see publication PMC6013238, “Development of novel NEMO-binding domain mimetics for inhibiting IKK/NF-κB activation” (PLoS Biology, 2018).
